Columns and labels:
[1] = target: T1, rat-species vanilloid receptor 1 (VR1/TRPV1) (Rattus norvegicus, UniProt O35433); assay: Functional testing on vanilloid receptor 1 (VR1/TRPV1): FLIPR Ca2+ inflow assay in rat dorsal root ganglia cells (% activation / % inhibition vs capsaicin); type: cell-based; conditions: for inhibition at 10 µM: inhibition compared to 10 μM CP (capsaicin); for activation at 10 µM: stimulation compared to 10 μM CP (capsaicin)
T1 construct: endogenous in cells; host or cells: primary cells dissociated from rat dorsal root ganglia (DRG)
Method: Preference may also be given to substituted spiro compounds according to the invention of general formula I which in a FLIPR assay in a concentration of 10 μM display inhibition of the Ca^2+ ion inflow in dorsal root ganglia of rats of at least 30%, preferably of at least 40%, particularly preferably of at least 50%, most particularly preferably of at least 70%, even more preferably of at least 90%, compared to the maximum achievable inhibition of the Ca^2+ ion inflow with capsaicin in a concentration of 10 μM.
In the FLIPR assay, the Ca^2+ inflow is quantified using a Ca^2+-sensitive dye (type Fluo-4, Molecular Probes Europe BV, Leiden, Netherlands) in a fluorescent imaging plate reader (FLIPR, Molecular Devices, Sunnyvale, USA), as described hereinafter.
I. Functional Testing Carried Out on the Vanilloid Receptor 1 (VR1/TRPV1 Receptor)
(§1) The agonistic or antagonistic effect of the substances to be tested can be determined on the rat-species vanilloid receptor 1 (VR1/TRPV1) using the following assay. According to this assay, the Ca^2+ inflow is quantified through the receptor channel using a Ca^2+-sensitive dye (type Fluo-4, Molecular Probes Europe BV, Leiden, Netherlands) in a fluorescent imaging plate reader (FLIPR, Molecular Devices, Sunnyvale, USA).
Complete medium: 50 mL HAMS F12 nutrient mixture (Gibco Invitrogen GmbH, Karlsruhe, Germany) with
10% by volume of FCS (foetal calf serum, Gibco Invitrogen GmbH, Karlsruhe, Germany, […]);
2 mM L-glutamine (Sigma, Munich, Germany);
1% by weight of AA solution (antibiotic/antimyotic solution, PAA, Pasching, Austria)
and 25 ng/ml NGF medium (2.5 S, Gibco Invitrogen GmbH, Karlsruhe, Germany)
Cell culture plate: Poly-D-lysine-coated, black 96 well plates having a clear base (96 well black/clear plate, BD Biosciences, Heidelberg, Germany) were additionally coated with laminin (Gibco Invitrogen GmbH, Karlsruhe, Germany), the laminin being diluted with PBS (Ca—Mg-free PBS, Gibco Invitrogen GmbH, Karlsruhe, Germany) to a concentration of 100 μg/mL. Aliquots having a laminin concentration of 100 μg/mL were removed and stored at −20° C. The aliquots were diluted with PBS in a ratio of 1:10 to 10 μg/mL laminin and in each case 50 μL of the solution were pipetted into a recess in the cell culture plate. The cell culture plates were incubated for at least two hours at 37° C., the excess solution was removed by suction-filtration and the recesses were each washed twice with PBS. The coated cell culture plates were stored with excess PBS which was not removed until just before the feeding of the cells.
Preparation of the Cells:
The vertebral column was removed from decapitated rats and placed immediately into cold HBSS buffer (Hank's buffered saline solution, Gibco Invitrogen GmbH, Karlsruhe, Germany), i.e. buffer located in an ice bath, mixed with 1% by volume (percent by volume) of an AA solution (antibiotic/antimyotic solution, PAA, Pasching, Austria). The vertebral column was cut longitudinally and removed together with fasciae from the vertebral canal. Subsequently, the dorsal root ganglia (DRG) were removed and again stored in cold HBSS buffer mixed with 1% by volume of an AA solution. The DRG, from which all blood remnants and spinal nerves had been removed, were transferred in each case to 500 μL of cold type 2 collagenase (PAA, Pasching, Austria) and incubated for 35 minutes at 37° C. After the addition of 2.5% by volume of trypsin (PAA, Pasching, Austria), incubation was continued for 10 minutes at 37° C. After complete incubation, the enzyme solution was carefully pipetted off and 500 μL of complete medium were added to each of the remaining DRG. The DRG were in each case suspended several times, drawn through cannulae No. 1, No. 12 and No. 16 using a syringe and transferred to a 50 mL Falcon tube which was filled up to 15 mL with complete medium. […]

vanilloid receptor (VR1) = target: T2, vanilloid receptor (VR1) (Homo sapiens, UniProt Q8NER1); assay: Functional testing on vanilloid receptor (VR1): FLIPR Ca2+ inflow assay in CHO K1 cells stably transfected with the VR1 gene; type: cell-based; conditions: for inhibition at 10 µM: CHO-K1, inhibition compared to 10 μM CP (capsaicin); for activation at 10 µM: CHO-K1, stimulation compared to 10 μM CP (capsaicin)
T2 construct: expressed in transfected cells; host or cells: CHO K1 cells (ECACC), stably transfected
Text: II. Functional Testing Carried Out on the Vanilloid Receptor (VR1)
as §1, with “can also” for “can”, “the” for “the rat-species”, “(VR1)” for “1 (VR1/TRPV1)”, “the” for “the receptor”
Chinese hamster ovary cells (CHO K1 cells, European Collection of Cell Cultures (ECACC) United Kingdom) were stably transfected with the VR1 gene. For functional testing, these cells were plated out on poly-D-lysine-coated black 96 well plates having a clear base (BD Biosciences, Heidelberg, Germany) at a density of 25,000 cells/well. The cells were incubated overnight at 37° C. and 5% CO2 in a culture medium (Ham's F12 nutrient mixture, 10% by volume of FCS (foetal calf serum), 18 μg/ml L-proline). The next day the cells were incubated with Fluo-4 (Fluo-4 2 μM, 0.01% by volume of Pluronic F127, Molecular Probes in HBSS (Hank's buffered saline solution), Gibco Invitrogen GmbH, Karlsruhe, Germany) for 30 minutes at 37° C. Subsequently, the plates were washed 3 times with HBSS buffer and after further incubation for 15 minutes at room temperature used for Ca^2+ measurement in a FLIPR assay. The Ca^2+-dependent fluorescence was measured before and after the addition of the substances to be tested (λex wavelength=488 nm, λem=540 nm). Quantification was carried out by measuring the highest fluorescence intensity (FC, Fluorescence Counts) over time.
The FLIPR protocol consists of 2 substance additions. First the compounds to be tested (10 μM) were pipetted onto the cells and the Ca^2+ inflow was compared with the control (capsaicin 10 μM) (% activation based on the Ca^2+ signal after the addition of 10 μM capsaicin). After 5 minutes' incubation, 100 nM of capsaicin were administered and the Ca^2+ inflow was also determined.
Desensitising agonists and antagonists led to suppression of the Ca^2+ inflow. The % inhibition was calculated compared to the maximum achievable inhibition with 10 μM of capsaicin.

T2 sequence (Q8NER1 whole entry): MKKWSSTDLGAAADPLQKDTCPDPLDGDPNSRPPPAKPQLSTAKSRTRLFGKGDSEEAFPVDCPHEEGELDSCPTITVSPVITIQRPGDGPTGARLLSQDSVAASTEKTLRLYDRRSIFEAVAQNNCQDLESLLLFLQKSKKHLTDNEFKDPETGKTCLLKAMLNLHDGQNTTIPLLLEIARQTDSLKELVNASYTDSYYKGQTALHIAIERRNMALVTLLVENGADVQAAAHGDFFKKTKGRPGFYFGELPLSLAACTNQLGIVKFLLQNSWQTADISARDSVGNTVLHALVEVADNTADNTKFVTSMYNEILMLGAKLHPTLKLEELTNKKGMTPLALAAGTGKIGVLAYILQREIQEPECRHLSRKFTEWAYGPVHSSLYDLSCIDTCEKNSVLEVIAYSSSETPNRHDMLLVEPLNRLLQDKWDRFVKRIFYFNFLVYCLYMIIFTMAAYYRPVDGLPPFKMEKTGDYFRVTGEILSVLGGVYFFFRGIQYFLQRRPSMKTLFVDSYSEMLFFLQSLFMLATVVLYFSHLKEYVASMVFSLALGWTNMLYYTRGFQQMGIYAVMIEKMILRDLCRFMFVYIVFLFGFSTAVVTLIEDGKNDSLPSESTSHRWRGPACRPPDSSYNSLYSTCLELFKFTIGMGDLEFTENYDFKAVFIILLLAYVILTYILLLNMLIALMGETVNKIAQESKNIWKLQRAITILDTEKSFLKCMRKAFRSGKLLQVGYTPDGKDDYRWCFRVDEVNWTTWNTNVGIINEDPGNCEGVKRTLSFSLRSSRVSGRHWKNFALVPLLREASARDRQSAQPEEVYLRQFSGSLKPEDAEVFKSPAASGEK
T1 sequence (O35433 whole entry): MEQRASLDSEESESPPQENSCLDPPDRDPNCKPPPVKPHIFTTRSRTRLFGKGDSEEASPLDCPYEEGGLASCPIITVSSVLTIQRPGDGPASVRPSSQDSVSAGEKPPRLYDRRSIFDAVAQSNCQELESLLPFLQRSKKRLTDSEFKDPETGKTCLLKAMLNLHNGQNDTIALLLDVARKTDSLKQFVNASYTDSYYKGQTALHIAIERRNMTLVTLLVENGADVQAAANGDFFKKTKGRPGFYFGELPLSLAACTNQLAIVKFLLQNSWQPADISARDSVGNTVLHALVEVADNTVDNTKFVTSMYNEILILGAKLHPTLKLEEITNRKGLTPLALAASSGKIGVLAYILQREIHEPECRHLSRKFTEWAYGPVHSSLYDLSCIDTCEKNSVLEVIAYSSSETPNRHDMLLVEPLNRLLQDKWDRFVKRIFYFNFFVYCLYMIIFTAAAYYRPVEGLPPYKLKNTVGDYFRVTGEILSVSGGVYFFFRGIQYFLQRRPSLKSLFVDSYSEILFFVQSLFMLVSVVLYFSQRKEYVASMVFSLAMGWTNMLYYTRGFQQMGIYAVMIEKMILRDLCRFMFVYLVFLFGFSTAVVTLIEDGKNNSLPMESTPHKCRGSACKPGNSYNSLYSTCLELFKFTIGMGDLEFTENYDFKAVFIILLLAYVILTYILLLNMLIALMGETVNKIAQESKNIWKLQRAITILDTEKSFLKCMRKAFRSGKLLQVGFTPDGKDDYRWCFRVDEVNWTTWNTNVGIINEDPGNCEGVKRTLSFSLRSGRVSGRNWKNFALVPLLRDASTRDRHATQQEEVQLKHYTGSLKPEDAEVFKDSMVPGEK

| SMILES | inhibition at 10 µM [1] [%] | activation at 10 µM [1] [%] | inhibition at 10 µM (vanilloid receptor (VR1)) [%] | activation at 10 µM (vanilloid receptor (VR1)) [%] | IC50 ([1]; capsaicin (CAP) stimulus, average) [nM] |
| --- | --- | --- | --- | --- | --- |
| Cc1ccc(C2=NOC3(CCN(C(=O)Nc4ccc(C(C)C)cc4)CC3)C2)cc1 [Compound 81, 3-p-tolyl-1-oxa-2,8-diazaspiro[4.5]dec-2-ene-8-carboxylic acid-(4-isopropylphenyl)amide] | 58.8 | -0.47 | -2.79 | -0.35 | – |
| O=C(Nc1cccc(C(F)(F)F)c1)N1CCC2(CC1)CC(c1ccccc1)=NO2 [Compound 90, 3-phenyl-1-oxa-2,8-diazaspiro[4.5]dec-2-ene-8-carboxylic acid-(3-trifluoromethylphenyl)amide] | 55.9 | -0.47 | -7.62 | -0.15 | – |
| O=C(Nc1ccccc1Oc1ccccc1)N1CCC2(CC1)CC(c1ccc(C(F)(F)F)cc1)=NO2 [Compound 103, 3-(4-trifluoromethylphenyl)-1-oxa-2,8-diazaspiro[4.5]dec-2-ene-8-carboxylic acid-(2-phenoxyphenyl)amide] | 50.9 | -0.47 | 8.28 | -0.35 | – |
| COc1cccc(C2=NOC3(CCN(C(=O)NCCc4ccccc4)CC3)C2)c1 [Compound 122, 3-(3-methoxyphenyl)-1-oxa-2,8-diazaspiro[4.5]dec-2-ene-8-carboxylic acid phenethylamide] | 49.2 | -0.47 | -13.1 | 0.07 | – |
| COc1cccc(C2=NOC3(CCN(C(=O)Nc4ccc(C(C)(C)C)cc4)CC3)C2)c1 [Compound 140, 3-(3-methoxyphenyl)-1-oxa-2,8-diazaspiro[4.5]dec-2-ene-8-carboxylic acid-(4-tert-butylphenyl)amide] | 99.2 | 1.4 | 9.67 | 9.37 | – |
| CC(C)(C)c1ccc(NC(=O)N2CCC3(CC2)CC(c2ccccc2)=NO3)cc1 [Compound 141, 3-phenyl-1-oxa-2,8-diazaspiro[4.5]dec-2-ene-8-carboxylic acid-(4-tert-butylphenyl)amide] | 98.5 | 0.42 | 20.4 | -0.3 | 78 |
| CC(C)(C)c1ccc(NC(=O)N2CCC3(CC2)CC(c2ccc(Cl)cc2)=NO3)cc1 [Compound 142, 3-(4-chlorophenyl)-1-oxa-2,8-diazaspiro[4.5]dec-2-ene-8-carboxylic acid-(4-tert-butylphenyl)amide] | 63 | -0.2 | -18.8 | -0.07 | – |
| CC(C)(C)c1ccc(NC(=O)N2CCC3(CC2)CC(c2ccc(C(C)(C)C)cc2)=NO3)cc1 [Compound 143, 3-(4-tert-butylphenyl)-1-oxa-2,8-diazaspiro[4.5]dec-2-ene-8-carboxylic acid-(4-tert-butylphenyl)amide] | 45.7 | -0.33 | -7.17 | 4.12 | – |
| Cc1ccc(C2=NOC3(CCN(C(=O)Nc4ccc(C(C)(C)C)cc4)CC3)C2)cc1 [Compound 144, 3-p-tolyl-1-oxa-2,8-diazaspiro[4.5]dec-2-ene-8-carboxylic acid-(4-tert-butylphenyl)amide] | 94.5 | -0.43 | -16.6 | -0.18 | – |
| CC(C)(C)c1ccc(NC(=O)N2CCC3(CC2)CC(c2ccc(C(F)(F)F)cc2)=NO3)cc1 [Compound 145, 3-(4-trifluoromethylphenyl)-1-oxa-2,8-diazaspiro[4.5]dec-2-ene-8-carboxylic acid-(4-tert-butylphenyl)amide] | 59.9 | -0.2 | 4.26 | 2.49 | – |
| COc1cccc(C2=NOC3(CCN(C(=O)Nc4ccc(C)cc4)CC3)C2)c1 [Compound 146, 3-(3-methoxyphenyl)-1-oxa-2,8-diazaspiro[4.5]dec-2-ene-8-carboxylic acid p-tolylamide] | 58 | -0.13 | 9.95 | 0.29 | – |
| CCc1ccccc1NC(=O)N1CCC2(CC1)CC(c1cccc(OC)c1)=NO2 [Compound 156, 3-(3-methoxyphenyl)-1-oxa-2,8-diazaspiro[4.5]dec-2-ene-8-carboxylic acid-(2-ethylphenyl)amide] | 48.2 | 0.2 | -7.89 | 0.69 | – |
| CCc1ccc(NC(=O)N2CCC3(CC2)CC(c2ccccc2)=NO3)cc1 [Compound 163, 3-phenyl-1-oxa-2,8-diazaspiro[4.5]dec-2-ene-8-carboxylic acid-(4-ethylphenyl)amide] | 84.3 | -0.43 | -3.15 | 0.12 | – |
| CCc1ccc(NC(=O)N2CCC3(CC2)CC(c2ccc(Cl)cc2)=NO3)cc1 [Compound 164, 3-(4-chlorophenyl)-1-oxa-2,8-diazaspiro[4.5]dec-2-ene-8-carboxylic acid-(4-ethylphenyl)amide] | 72.9 | -0.43 | -2.13 | -0.04 | – |
| CCc1ccc(NC(=O)N2CCC3(CC2)CC(c2ccc(C(C)(C)C)cc2)=NO3)cc1 [Compound 165, 3-(4-tert-butylphenyl)-1-oxa-2,8-diazaspiro[4.5]dec-2-ene-8-carboxylic acid-(4-ethylphenyl)amide] | 56.2 | -0.43 | 1.69 | 1.92 | – |

Reference: patent US8772307B2, “Substituted spiro compounds and their use for producing pain-relief medicaments” (Gruenenthal GmbH, priority 2005, dated 2014)
